Experimental data: ChEMBL document CHEMBL1201862, “PubChem BioAssay data set” (2004)
The source made the active and inactive calls.

What was measured:
Streptokinase A = target: T1, Streptokinase A (Streptococcus pyogenes serotype M1, UniProt P10520); experiment: S. pyogenes streptokinase expression inhibitors, potency, dose response, plasminogen activation absorbance, OD405 (AID 1914); assay type: functional, Streptococcus pyogenes M1 GAS;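 also: secreted streptokinase activity via plasminogen activation per viability signal from cell pellet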
T1 sequence (P10520 whole entry): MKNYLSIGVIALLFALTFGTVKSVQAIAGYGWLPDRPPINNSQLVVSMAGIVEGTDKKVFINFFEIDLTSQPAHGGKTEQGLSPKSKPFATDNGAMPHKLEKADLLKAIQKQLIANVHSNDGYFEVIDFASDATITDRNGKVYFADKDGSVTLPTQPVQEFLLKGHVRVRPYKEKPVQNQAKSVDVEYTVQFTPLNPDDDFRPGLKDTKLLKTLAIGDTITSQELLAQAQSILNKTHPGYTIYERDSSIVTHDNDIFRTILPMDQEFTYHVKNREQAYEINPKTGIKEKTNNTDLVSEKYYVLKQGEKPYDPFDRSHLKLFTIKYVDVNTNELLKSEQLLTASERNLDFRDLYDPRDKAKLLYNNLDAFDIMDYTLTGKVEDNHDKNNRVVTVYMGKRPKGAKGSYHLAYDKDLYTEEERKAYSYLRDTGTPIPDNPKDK

[1] = Luminescence Cell-Based Dose Retest to Confirm Inhibitors of Cancer Stem Cells. [Related pubchem assays (depositor defined):AID2717, AID2721]; assay type: functional; conditions: Homo sapiens
Streptococcus = experiment: Group A Streptococcus viability loss, dose response, counter-screen for streptokinase expression inhibitor project, luminescence, BacTiterGlo (AID 1915); assay type: functional, organism-based;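 also: potency for reduction of bacterial viability or growth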
[2] = inhibitors of Bluetongue virus cytopathic effect, confirmation, arbovirus, BSR cells (AID 1250); assay type: functional;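 also: protection from viral cytopathic effect measured as cell viability by ATP luminescence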
[3] = tested on: Streptococcus sp. 'group A'; experiment: growth inhibition of control SK(-) GAS strain, dose response, counter-screen for streptokinase expression inhibitor project, luminescence, kanamycin, BacTiterGlo, confirmation (AID 1900); assay type: functional, organism-based
Protein RecA = target: T2, Protein RecA (Mycobacterium tuberculosis, UniProt P9WHJ3); experiment: Fluorescence Cell-Free Homogeneous Dose Retest to Identify Inhibitors of RecA-Intein Splicing Activity. [Related pubchem assays (depositor defined):AID2097, AID2223, AID489010, AID492950]; assay type: functional
T2 sequence (P9WHJ3 whole entry): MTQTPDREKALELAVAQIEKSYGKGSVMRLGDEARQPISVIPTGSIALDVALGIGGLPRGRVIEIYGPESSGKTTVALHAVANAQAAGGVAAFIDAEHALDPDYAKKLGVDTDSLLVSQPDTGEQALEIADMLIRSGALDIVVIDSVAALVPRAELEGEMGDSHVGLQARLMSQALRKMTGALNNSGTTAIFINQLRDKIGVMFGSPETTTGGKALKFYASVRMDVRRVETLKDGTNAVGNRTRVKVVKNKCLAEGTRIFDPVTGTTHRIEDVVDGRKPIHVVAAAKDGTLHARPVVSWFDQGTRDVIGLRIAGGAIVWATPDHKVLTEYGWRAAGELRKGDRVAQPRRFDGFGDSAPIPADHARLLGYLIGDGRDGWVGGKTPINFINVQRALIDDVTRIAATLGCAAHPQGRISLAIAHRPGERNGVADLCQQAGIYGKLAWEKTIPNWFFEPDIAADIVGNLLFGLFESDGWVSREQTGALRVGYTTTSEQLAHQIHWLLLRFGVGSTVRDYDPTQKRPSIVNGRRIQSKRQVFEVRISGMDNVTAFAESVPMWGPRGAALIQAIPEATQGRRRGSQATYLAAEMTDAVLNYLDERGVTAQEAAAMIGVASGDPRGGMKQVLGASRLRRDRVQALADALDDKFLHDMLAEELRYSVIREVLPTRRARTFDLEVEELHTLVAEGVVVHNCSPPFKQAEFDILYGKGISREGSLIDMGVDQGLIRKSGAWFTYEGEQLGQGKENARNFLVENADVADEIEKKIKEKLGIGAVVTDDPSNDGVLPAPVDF

[4] = target: T3, Replicative DNA helicase DnaB (Mycobacterium tuberculosis, UniProt P9WMR3); experiment: DnaB intein splicing inhibitors, dose response, biochemical, cell-free fluorescence (AID 449749); assay type: functional
T3 sequence (P9WMR3 whole entry): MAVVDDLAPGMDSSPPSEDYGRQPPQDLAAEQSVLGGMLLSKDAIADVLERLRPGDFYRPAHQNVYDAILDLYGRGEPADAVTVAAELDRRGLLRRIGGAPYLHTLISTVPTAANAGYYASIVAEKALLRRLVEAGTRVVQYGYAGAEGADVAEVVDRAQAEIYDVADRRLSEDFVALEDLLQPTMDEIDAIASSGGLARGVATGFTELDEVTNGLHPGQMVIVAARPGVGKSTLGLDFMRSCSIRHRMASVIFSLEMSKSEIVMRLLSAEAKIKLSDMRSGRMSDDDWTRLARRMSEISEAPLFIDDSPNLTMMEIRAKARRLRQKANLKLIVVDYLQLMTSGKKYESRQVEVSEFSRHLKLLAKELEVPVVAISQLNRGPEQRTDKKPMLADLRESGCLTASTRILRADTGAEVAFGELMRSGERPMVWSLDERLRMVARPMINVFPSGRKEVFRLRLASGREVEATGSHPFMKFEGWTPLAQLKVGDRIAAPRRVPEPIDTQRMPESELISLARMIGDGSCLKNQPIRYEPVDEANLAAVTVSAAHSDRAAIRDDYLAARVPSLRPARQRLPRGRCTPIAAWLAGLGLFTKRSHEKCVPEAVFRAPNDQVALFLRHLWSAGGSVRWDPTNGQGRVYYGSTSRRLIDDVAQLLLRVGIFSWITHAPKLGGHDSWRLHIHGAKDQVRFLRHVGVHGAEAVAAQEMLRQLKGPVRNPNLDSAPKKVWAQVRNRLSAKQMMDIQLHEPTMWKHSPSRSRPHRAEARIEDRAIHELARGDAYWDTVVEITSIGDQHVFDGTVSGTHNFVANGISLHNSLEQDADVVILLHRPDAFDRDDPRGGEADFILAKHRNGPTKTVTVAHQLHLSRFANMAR

Cytochrome P450 2C19 = Cytochrome P450 2C19 (Homo sapiens, UniProt P33261); experiment: Cytochrome panel assay with activity outcomes. Panel member name: p450-cyp2c19 Compounds with AC50 equal or less than 10 uM are considered active; assay type: functional; conditions: read-out: AC50
Chain of Cytochrome P450 2C19 (P33261 whole entry): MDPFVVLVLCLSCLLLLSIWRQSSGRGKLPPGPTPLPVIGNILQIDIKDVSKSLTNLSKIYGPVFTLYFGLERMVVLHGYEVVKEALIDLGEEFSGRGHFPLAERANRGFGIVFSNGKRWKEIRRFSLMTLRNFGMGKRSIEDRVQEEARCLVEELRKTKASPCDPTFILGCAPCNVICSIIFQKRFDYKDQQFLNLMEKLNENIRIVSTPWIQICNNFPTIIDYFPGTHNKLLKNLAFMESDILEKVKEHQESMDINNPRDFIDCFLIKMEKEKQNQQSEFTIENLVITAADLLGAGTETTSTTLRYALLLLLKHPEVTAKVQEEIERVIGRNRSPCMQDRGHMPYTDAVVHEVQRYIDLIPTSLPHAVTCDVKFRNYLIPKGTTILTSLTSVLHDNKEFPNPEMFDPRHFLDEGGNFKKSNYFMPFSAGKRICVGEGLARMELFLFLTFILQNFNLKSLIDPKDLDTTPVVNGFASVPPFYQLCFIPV

Cytochrome P450 2C9 = Cytochrome P450 2C9 (Homo sapiens, UniProt P11712)
Chain of Cytochrome P450 2C9 (P11712 whole entry): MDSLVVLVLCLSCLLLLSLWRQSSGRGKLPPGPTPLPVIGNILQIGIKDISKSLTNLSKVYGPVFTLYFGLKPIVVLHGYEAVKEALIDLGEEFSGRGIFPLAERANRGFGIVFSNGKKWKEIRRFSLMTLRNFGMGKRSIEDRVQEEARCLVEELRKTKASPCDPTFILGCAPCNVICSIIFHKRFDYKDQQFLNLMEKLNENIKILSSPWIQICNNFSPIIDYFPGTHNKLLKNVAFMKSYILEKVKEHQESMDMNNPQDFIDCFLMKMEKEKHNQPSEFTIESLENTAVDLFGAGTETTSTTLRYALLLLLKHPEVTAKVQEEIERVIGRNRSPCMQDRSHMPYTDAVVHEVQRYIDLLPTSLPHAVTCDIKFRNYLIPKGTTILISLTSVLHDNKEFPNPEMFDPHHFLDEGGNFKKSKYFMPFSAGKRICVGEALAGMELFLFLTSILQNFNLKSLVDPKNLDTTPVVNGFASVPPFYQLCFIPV

Prothrombin = Prothrombin (Homo sapiens, UniProt P00734); experiment: Thrombin 1536 HTS Dose Response Confirmation. [Related pubchem assays: 1046 (Thrombin 1536 HTS; hits were confirmed in this assay)]; assay type: functional
[5] = cytotoxicity toward DRD oncogenic fibroblasts, dose response, cell-based, non-viral oncogenic, luminescence (AID 1934); assay type: functional; conditions: Homo sapiens
BJ [6] = experiment: cytotoxicity toward BJ-TERT-LT-ST fibroblasts, dose response, cell-based, RAS-independent, luminescence (AID 1935); assay type: functional; conditions: Homo sapiens;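 also: BJ fibroblasts immortalized with TERT plus LT and ST oncogenes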
[7] = insulin promoter down-regulators in MIN6 cells, imaging, high-content screening, mouse beta cells (AID 1628); assay type: functional
BJ [8] = experiment: cells; assay type: functional, cell-based; conditions: Homo sapiens
BJ [9] = experiment: cytotoxicity toward Ras-transformed BJeLR fibroblasts, dose response, cell-based, alamar blue fluorescence, cherrypicked samples (AID 2631); assay type: functional; conditions: Homo sapiens;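 also: confirmatory dose-response assay in RAS-dependent BJ fibroblasts engineered with TERT, LT and ST, with cytotoxicity read by fluorescence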
[10] = cytotoxicity in MIN6 insulinoma cells, dose response, cytotoxicity control, cell-based, mouse insulinoma (AID 2122); assay type: functional;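 also: confirmatory high-throughput counterscreen run to flag cytotoxic compounds; mouse MIN-6 beta cells carrying an insulin promoter eGFP reporter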
Paired box protein Pax-8 = Paired box protein Pax-8 (Homo sapiens, UniProt Q06710); experiment: inhibitors of PAX8-driven TPO luciferase reporter, dose response, RMG-I cells, cherry-pick (AID 687027); assay type: functional, cell-based;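 also: luciferase reporter driven by Pax8 target thyroperoxidase promoter measured by SteadyGlo luminescence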
Chain of Paired box protein Pax-8 (Q06710 whole entry): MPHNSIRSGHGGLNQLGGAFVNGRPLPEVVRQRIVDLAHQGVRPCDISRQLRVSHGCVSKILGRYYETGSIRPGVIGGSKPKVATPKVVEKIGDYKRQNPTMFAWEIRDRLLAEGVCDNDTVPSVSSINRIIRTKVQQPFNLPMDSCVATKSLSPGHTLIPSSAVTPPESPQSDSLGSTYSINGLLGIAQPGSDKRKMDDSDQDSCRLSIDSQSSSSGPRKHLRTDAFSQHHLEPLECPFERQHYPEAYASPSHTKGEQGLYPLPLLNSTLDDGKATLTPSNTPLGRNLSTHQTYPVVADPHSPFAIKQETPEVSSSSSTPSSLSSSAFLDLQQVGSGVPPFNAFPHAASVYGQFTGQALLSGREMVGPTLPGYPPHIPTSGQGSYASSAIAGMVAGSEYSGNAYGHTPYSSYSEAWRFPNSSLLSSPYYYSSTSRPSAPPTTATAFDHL

BJ [11] = experiment: cytotoxicity toward BJ-TERT fibroblasts, dose response, cell-based, RAS-independent, luminescence (AID 1933); assay type: functional; conditions: Homo sapiens
INS1 = experiment: beta cell apoptosis inhibitors, cytokine rescue, dose response, luminescence, retest (AID 449756); assay type: functional, cell-based; conditions: Rattus norvegicus;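 also: cell death triggered by IL-1 beta plus TNF-alpha plus IFN-gamma mixture; protective hits raise ATP signal compared with cytokine alone wells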
[12] = Luminescence-based dose response cell-based high throughput screening assay for cytotoxic compounds using the IEC-6 intestinal epithelial cell line. [Related pubchem assays: 1858 (Summary AID.), 1825 (Counterscreen.), 1907 (Confirmation screen.)]; assay type: functional
HT-1080 = experiment: cytotoxicity in HT1080 fibrosarcoma cells, cell-based, fluorescence readout (AID 620); assay type: functional; conditions: Homo sapiens
[13] = target: Luciferin 4-monooxygenase (Photinus pyralis, UniProt P08659); experiment: Counter Screen for Luciferase-based Assay Positives. [Related pubchem assays: 620, 618, 411 ]
Chain of Luciferin 4-monooxygenase (P08659 whole entry): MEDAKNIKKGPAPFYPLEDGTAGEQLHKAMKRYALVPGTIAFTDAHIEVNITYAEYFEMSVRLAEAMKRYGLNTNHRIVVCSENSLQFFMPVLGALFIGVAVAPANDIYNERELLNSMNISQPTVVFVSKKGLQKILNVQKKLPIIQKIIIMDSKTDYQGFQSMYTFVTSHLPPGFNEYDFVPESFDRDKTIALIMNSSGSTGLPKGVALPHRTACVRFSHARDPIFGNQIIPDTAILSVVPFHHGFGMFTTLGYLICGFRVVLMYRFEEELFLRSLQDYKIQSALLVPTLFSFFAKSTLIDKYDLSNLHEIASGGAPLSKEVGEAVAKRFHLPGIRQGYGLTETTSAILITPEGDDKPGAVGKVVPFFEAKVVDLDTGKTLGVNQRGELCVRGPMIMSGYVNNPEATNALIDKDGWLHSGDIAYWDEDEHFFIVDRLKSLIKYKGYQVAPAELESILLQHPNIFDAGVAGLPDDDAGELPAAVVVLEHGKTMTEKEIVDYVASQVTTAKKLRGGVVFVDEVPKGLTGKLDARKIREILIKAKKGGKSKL

Wee1-like protein kinase = Wee1-like protein kinase (Homo sapiens, UniProt P30291); experiment: Dose Response Cell-based Assay for Inhibitors of Wee1 Degradation. [Related pubchem assays: 1410, 1321 ]; assay type: functional
Chain of Wee1-like protein kinase (P30291 whole entry): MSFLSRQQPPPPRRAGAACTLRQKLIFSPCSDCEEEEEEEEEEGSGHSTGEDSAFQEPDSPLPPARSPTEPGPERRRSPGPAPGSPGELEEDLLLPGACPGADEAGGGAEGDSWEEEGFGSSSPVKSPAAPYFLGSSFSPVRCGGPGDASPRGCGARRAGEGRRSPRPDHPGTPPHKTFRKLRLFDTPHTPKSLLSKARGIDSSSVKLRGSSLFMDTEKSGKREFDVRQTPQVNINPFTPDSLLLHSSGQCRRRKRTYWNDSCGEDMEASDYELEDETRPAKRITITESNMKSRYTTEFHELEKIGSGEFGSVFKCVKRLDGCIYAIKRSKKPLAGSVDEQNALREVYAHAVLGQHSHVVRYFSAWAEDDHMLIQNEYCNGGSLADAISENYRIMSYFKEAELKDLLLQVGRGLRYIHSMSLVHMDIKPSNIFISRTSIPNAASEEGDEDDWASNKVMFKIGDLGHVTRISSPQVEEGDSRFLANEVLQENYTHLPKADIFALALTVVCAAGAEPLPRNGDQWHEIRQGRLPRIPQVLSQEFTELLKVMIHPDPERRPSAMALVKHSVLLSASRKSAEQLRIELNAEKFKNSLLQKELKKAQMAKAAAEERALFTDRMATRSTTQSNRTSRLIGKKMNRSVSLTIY

[14] = target: G2/mitotic-specific cyclin-B1 (Homo sapiens, UniProt P14635); experiment: Counterscreen assay for inhibitors of Wee1 degradation: dose response cell-based assay to identify inhibitors of cyclin B degradation. [Related pubchem assays: 1410, 1321 ]; assay type: functional
Chain of G2/mitotic-specific cyclin-B1 (P14635 whole entry): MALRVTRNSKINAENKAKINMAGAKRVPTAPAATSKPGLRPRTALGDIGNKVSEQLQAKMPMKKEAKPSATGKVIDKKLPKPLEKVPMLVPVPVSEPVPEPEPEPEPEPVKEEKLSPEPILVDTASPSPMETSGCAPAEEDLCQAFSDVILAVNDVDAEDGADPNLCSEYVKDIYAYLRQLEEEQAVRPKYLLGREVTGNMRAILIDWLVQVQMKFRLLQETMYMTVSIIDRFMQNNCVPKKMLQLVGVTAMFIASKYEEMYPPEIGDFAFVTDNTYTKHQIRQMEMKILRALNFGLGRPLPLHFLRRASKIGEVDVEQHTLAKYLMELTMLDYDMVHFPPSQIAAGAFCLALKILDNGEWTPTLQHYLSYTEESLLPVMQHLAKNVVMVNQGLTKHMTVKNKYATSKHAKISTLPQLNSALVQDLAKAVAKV

[15] = target: Protein-tyrosine kinase 2-beta (Homo sapiens, UniProt Q14289);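 also: potency of inhibitors of PYK2 kinase phosphorylation of poly-GT substrate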
Mucolipin-3 = Mucolipin-3 (Homo sapiens, UniProt Q8TDD5); experiment: Dose response cell-based high-throughput screening assay for agonists of the transient receptor potential channel ML3 (TRPML3). [Related pubchem assays: 1526, 1424, 1448 ]; assay type: functional
Chain of Mucolipin-3 (Q8TDD5 whole entry): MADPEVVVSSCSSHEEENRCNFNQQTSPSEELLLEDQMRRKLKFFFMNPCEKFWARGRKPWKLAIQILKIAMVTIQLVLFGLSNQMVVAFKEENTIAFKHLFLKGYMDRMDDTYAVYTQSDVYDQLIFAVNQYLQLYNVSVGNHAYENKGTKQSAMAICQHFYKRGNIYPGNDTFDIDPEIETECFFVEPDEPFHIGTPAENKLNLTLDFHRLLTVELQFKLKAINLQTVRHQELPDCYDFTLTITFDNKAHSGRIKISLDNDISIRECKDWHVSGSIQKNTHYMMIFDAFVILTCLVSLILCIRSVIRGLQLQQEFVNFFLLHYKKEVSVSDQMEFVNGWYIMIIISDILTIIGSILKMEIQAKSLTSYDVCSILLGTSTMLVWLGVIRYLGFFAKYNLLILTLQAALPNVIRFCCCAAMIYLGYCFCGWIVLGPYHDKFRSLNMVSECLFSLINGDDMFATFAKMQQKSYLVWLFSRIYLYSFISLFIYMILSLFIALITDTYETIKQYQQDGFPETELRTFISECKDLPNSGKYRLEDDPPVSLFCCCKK

Ion channel NompC = Ion channel NompC (Danio rerio, UniProt Q7T1G6); experiment: Fluorescence counterscreen assay for TRPML3 agonists: dose response cell-based high-throughput screening assay to identify agonists of the transient receptor potential channel N1 (TRPN1). [Related pubchem assays: 1526, 1424, 1448 ]; assay type: functional
Estrogen receptor = Estrogen receptor (Homo sapiens, UniProt P03372); experiment: potentiators of ERα–SRC-1 coactivator binding, dose response, biochemical, TR-FRET, ERα LBD (AID 737)
[16] = target: Mothers against decapentaplegic homolog 3 (Homo sapiens, UniProt P84022); experiment: Smad3 binding inhibitors, lysate ELISA, dose response, cell lysate, secondary confirmation, chemiluminescent ELISA, HEK293 lysate (AID 1058); assay type: functional
Chain of Mothers against decapentaplegic homolog 3 (P84022 whole entry): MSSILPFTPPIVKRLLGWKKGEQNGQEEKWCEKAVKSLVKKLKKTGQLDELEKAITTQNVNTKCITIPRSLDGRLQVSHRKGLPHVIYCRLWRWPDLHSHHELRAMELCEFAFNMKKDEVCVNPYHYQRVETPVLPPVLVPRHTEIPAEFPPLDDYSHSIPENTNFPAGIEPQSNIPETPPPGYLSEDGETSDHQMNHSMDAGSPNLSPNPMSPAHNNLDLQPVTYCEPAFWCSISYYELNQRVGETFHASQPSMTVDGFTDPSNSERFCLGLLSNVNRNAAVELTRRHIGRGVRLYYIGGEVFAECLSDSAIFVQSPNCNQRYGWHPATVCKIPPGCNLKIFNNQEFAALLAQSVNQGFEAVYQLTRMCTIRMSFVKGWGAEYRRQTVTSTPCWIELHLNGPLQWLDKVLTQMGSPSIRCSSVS

[17] = target: 5-hydroxytryptamine receptor 1A (Homo sapiens, UniProt P08908); assay type: functional
Chain of 5-hydroxytryptamine receptor 1A (P08908 whole entry): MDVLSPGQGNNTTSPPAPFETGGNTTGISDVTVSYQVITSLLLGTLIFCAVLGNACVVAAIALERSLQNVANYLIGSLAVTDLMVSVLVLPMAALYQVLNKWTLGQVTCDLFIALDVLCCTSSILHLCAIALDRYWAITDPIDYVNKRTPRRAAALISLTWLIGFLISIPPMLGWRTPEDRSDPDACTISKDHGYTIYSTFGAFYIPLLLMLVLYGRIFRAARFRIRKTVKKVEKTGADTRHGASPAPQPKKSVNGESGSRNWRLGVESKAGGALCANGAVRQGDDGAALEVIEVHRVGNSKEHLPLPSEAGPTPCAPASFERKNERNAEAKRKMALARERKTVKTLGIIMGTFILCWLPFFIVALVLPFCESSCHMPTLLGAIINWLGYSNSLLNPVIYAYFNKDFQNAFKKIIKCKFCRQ

Cytochrome P450 2D6 = Cytochrome P450 2D6 (Homo sapiens, UniProt P10635); experiment: qHTS Assay for Inhibitors and Substrates of Cytochrome P450 2D6. [Related pubchem assays: 410 ]; assay type: ADME; conditions: read-out: Potency
Chain of Cytochrome P450 2D6 (P10635 whole entry): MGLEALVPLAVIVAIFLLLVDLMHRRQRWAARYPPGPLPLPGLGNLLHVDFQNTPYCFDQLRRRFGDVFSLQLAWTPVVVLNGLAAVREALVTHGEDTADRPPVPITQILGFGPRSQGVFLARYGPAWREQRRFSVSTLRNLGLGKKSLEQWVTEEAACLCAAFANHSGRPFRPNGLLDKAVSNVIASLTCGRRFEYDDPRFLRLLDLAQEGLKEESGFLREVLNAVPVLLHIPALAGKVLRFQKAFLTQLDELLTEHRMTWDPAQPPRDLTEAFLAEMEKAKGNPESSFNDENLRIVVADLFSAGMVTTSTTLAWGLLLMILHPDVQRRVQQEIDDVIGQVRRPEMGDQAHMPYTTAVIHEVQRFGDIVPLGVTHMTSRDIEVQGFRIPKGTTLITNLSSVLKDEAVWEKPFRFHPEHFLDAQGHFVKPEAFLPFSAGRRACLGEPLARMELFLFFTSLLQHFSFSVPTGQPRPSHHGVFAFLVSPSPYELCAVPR

[18] = inhibitors of SNCA 5'UTR-driven reporter translation, confirmation, H4 neuroglioma cells, luminescence (AID 1988); assay type: functional, cell-based
[19] = inhibitors of SNCA 5'UTR-driven translation, confirmation, luminescence, H4 neuroglioblastoma cells, dose confirmation (AID 2454); assay type: functional, cell-based;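 also: H4 neuroglioblastoma cells carrying an alpha-synuclein 5'UTR luciferase reporter; potency for inhibition of the luciferase signal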
[20] = luciferase reporter signal reduction – luminescence, H4-C neuroglioblastoma cells, dose response (AID 2458); assay type: functional, cell-based;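 also: H4 neuroglioblastoma cells stably carrying a luciferase reporter gene fusion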
[21] = inhibitors of firefly luciferase expression or activity, dose response, H4 neuroglioma cells, luminescence (AID 1990); assay type: functional, cell-based
cells = assay type: functional, cell-based
[22] = Luminescence Cell-Based Dose Response HTS to Identify Inhibitors of 5'UTR Stem-Loop Driven Prion Protein mRNA Translation in H4 Neuroglioblastoma Cells. [Related pubchem assays: 1827 (Project Summary), 1813 (Primary HTS)]; assay type: functional

SMILES: Cc1ccc(-c2csc3ncnc(NS(=O)(=O)c4ccc(Cl)cc4)c23)cc1
- EC50 (Streptokinase A): 16.2 µM (active)
- AC50 [1]: 9.42 µM (active)
- EC50 (Streptococcus): 66.7 µM (active)
- IC50 [2]: 35.5 µM (active)
- EC50 [3]: 4.44 µM (active)

SMILES: CCOC(=O)CSc1n[nH]c(NC(=O)c2cccc(C(F)(F)F)c2)n1
- EC50 (Protein RecA): 12.4 µM (active)
- AC50 [4]: 11.3 µM (active)
- AC50 (Cytochrome P450 2C19): 2.51 µM (inconclusive)
- AC50 (Cytochrome P450 2C9): 5.01 µM (inconclusive)
- IC50 (Prothrombin): 0.515 µM (active)

SMILES: CCOc1ccc(C(=O)c2cc([N+](=O)[O-])ccc2N2CCOCC2)cc1
- EC50 [5]: 0.358 µM (active)
- EC50 (BJ [6]): 0.401 µM (inconclusive)
- IC50 [7]: 0.263 µM (active)
- EC50 (BJ [8]): 0.632 µM (active)
- EC50 (BJ [9]): < 0.104 µM (active)
- IC50 [10]: < 0.25 µM (active)
- AC50 (Paired box protein Pax-8): < 0.26 µM (active)
- EC50 (BJ [11]): 0.406 µM (active)
- AC50 (INS1): 0.775 µM (active)
- IC50 [12]: 0.0558 µM (active)

SMILES: Cc1ccc(-c2nc3cc(N)ccc3o2)cc1
- EC50 (HT-1080): > 50 µM (not active)
- EC50 [13]: 4.68 µM (active)

SMILES: CCN(CC)S(=O)(=O)c1ccc(C(=O)NCCc2ccccn2)cc1
- EC50 (Wee1-like protein kinase): > 49.7 µM (not active)
- EC50 [14]: > 49.7 µM (not active)

SMILES: O=C(Oc1ccccc1)c1c(Cl)cccc1P(=O)(O)O
- IC50 [15]: 6.43 µM (active)

SMILES: Cc1ccc(S(=O)(=O)N(C)c2cc(S(=O)(=O)N3CCC(C)CC3)c(C)cc2C)cc1
- EC50 (Mucolipin-3): 2.06 µM (active)
- EC50 (Ion channel NompC): > 29.9 µM (not active)

SMILES: COCCCn1c2nc3ccccc3nc2c2c(=O)n(-c3ccccc3OC)c(C)nc21
- EC50 (Estrogen receptor): 12.7 µM (not active)

SMILES: COc1cc(C(c2cc3c(cc2O)OCO3)N2CCOCC2)ccc1O (configuration not stated)
- IC50 [16]: 10.1 µM (not active)

SMILES: COC(=O)CC(=O)Cc1nc(N)nc(Nc2ccc(C)c(C)c2)n1
- EC50 [17]: > 50 µM (not active)

SMILES: COc1cccc(-c2oc3ccccc3c(=O)c2O)c1
- AC50 (Cytochrome P450 2D6): 31.6 µM (inconclusive)

SMILES: CC(=O)O[C@@H]1/C=C/[C@](C)(O)C[C@@H](C)C/C=C/[C@H]2[C@H](O)C(C)=C(C)[C@H]3[C@H](Cc4ccccc4)NC(=O)[C@@]123
- EC50 [18]: < 0.1 µM (active)
- EC50 [19]: 0.397 µM (active)
- EC50 [20]: 0.577 µM (active)
- EC50 [21]: 0.208 µM (active)
- EC50 (cells): 0.895 µM (active)
- EC50 [22]: 28.2 µM (active)
